In patent US4542153A, “Methods for changing calcium metabolism within the cells of a mammal” (The Ohio State University Research Foundation, priority 1983, dated 1985):
Like-named read-outs stand apart in the source and are kept apart here.

Columns and labels:
[1] = tested on: thoracic aorta strips contracted with norepinephrine; experiment: Vasodilator activity: norepinephrine-contracted aortic strips; type: cell-based, male Sprague-Dawley rats; conditions: for IC50: read-out: IC50 (mean and range of SEM) Norepinephrine; for comparative vasodilator activity, norepinephrine-treated tissue: norepinephrine-treated aortic tissue
Source text: (§1) Pr-MDI, bu-MDI, Q-bu-MDI and the compounds of Formulae IIIA, IIIB and IVA having the two R1 groups together forming a methylene group, each R3 a methyl group and R2 an n-propyl group or n-butyl group (the compounds of Formula III are hereinafter abbreviated as sat-pr-MDI and sat-bu-MDI respectively, reference being made where necessary to the cis isomer of Formula III A or the trans isomer of Formula III B while the compounds of Formula IV are similarly referred to as cis sat-Q-pr-MDI and cis sat-Q-bu-MDI) were tested for vasodilator activity by the method of R. F. Furchgott and S. Bhadrakom, J. P. Pharmacol. Ex. Ther., 108, 129-143 (1953).
(§2) The vasodilator activity tests were conducted on male Sprague-Dawley rats, obtained from Harlan Industries, Inc., Cumberland, Indiana. The rats, weight 250-300 g., were sacrified by cervical dislocation and a 2.5 cm. segment of the thoracic aorta was removed and rinshed in physiological buffer. Each aortic segment was cleaned of connective tissue and cut spirally two yield to strips, each 3 by 15 mm. Each strip was mounted isometrically under a tension of 1 g in a 10 ml. tissue bath thermostatically maintained at 37° C. and containing a normal physiological solution aerated with a 95% oxygen/5% carbon dioxide mixture. Forces generated by the strip were monitored using a Grass FT03 isometric transducer coupled to a Grass module 7D polygraph recorder, both the transducer and the recorder being obtained from Grass Instrument Co., of Quincy, Mass.
(§3) After the aortic tissue had been allowed to equilibriate for 1-1.5 hours in the normal physiologic solution, tissue contraction was induced by introducing either 10^-7 M norepinephrine or 40mM potassium chloride buffer to the tissue bath.
(§4) To avoid interference by loss of tension due to time dependent tissue fatigue, separate preliminary experiments were performed to determine the degree of tissue relaxation due to such fatigue and the value of the control tension generated by norepinephrine or potassium chloride prior to the addition of the test compounds was adjusted whenever the duration of the experiment was such that fatigue could be expected to cause more than a 6% loss of tension. […] All concentrations mentioned hereinafter represent the final concentration of the test compound after dilution in the tissue bath.
(§5) The figures of concentration against percent response data obtained from each aortic tissue were transformed to its appropriate probit value and IC50 values were then estimated using linear regression analysis. The normal physiological solution contained 6.9 g/l of sodium chloride, 0.35 g/l of potassium chloride, 0.11 g/l of magnesium chloride hexahydrate, 0.138 g/l of sodium dihydrogen phosphate, 2.1 g/l of sodium bicarbonate, 0.01 g/l of EDTA, 0.368 g/l of calcium chloride dihydrate and 2.0 g/l of dextrose. The high potassium buffers were obtained by substituting potassium chloride for sodium chloride on an equimolar basis to maintain tonicity.

[2] = tested on: thoracic aorta strips contracted with potassium chloride; experiment: Vasodilator activity: potassium chloride-contracted aortic strips; type: cell-based, male Sprague-Dawley rats; conditions: for IC50: read-out: IC50 (mean and range of SEM) KCl; for comparative vasodilator activity, potassium chloride-treated tissue: KCl-treated aortic tissue
Source text: as §1, §2, §3, §4, §5

[3] = tested on: calcium-induced arrhythmias in rats; experiment: Calcium-induced arrhythmias (CaCl2 injected i.v. into anesthetized rats); conditions: 8 mg/kg (minimum effective concentration)
Source text: The experimental method used was that described in Lynch J. J., Rahwan R. G., Witiak D. T.: Effects of 2-substituted-3-dimethylamino-5,6-methylenedioxyindenes on calcium-inducedarrhythmias, J. Cardiovasc. Pharmacol. 3: 49-60 (1981). Male Sprague-Dawley rats weighing 180-250 grams were anesthetized with sodium pentobarbital and a cannula was inserted into the left jugular vein for drug administration. Electrocardiograph equipment was connected to the rat and the lead II was continuously monitored. The compound under test, dissolved in 5% dextrose solution, was administered into the jugular vein of anesthetized rats over a 40 second period. Ten minutes after this treatment, an acute dose of 1 ml/kg of a 10% CaCl2.2H2 O solution was injected into the jugular vein over a period of 10 seconds. The arrhythmias resulting from the calcium administration were graded according to the following criteria: (a) initial change in heart rate following calcium administration; (b) incidences of sinoatrial block, atrioventricular block, ectopic beats, and ventricular flutter and fibrillation; (c) time required for reversion to control ECG; and (d) incidence of mortality.

[4] = tested on: chloroform anoxia arrhythmia in mice; experiment: Chloroform Anoxia Assay (chloroform-induced ventricular fibrillation); type: in vivo, Female Swiss albino mice; conditions: Mus musculus, ip, 10 min, i.p., 10 min before chloroform, table: mean values and 95% confidence limits, n = 40, read-out: ED50
Experimental: The same four compounds were tested for their ability to protect mice from chloroform anoxia by the classical chloroform inhalation procedure described in Lawson J. W.: Antiarrhythmic activity of some isoquinoline derivatives determined by a rapid screening procedure in the mouse, J. Pharmacol. Exp. Ther. 160: 22-31, (1968). In this method, chloroform inhalation leading to respiratory arrest produces ventricular fibrillation. Female Swiss albino mice procured from Laboratory Supply Company, Indianapolis, Indiana, weighing 16-22 g, were pretreated intraperitoneally with the compound under test dissolved in a 5% dextrose solution 10 minutes before exposure to chloroform in a closed container containing chloroform-saturated cotton. The mice were removed from the chloroform atmosphere immediately after respiratory arrest and the electrocardiograph lead II monitored. The ED 50 and 95% confidence limits calculated for the anti-arrhythmic agents by the standard method of Litchfield and Wilcoxon.

[5] = rat aorta contracted with 10^-7 M norepinephrine
[6] = rat aorta contracted with 40 mM potassium chloride

IC50 [1, 5] | IC50 [2, 6] | Structure (SMILES) | IC50 ([1]; Rattus norvegicus) | comparative vasodilator activity, norepinephrine-treated tissue [1] | IC50 ([2]; Rattus norvegicus) | further results
281 µM | 175 µM | CCCC[C@@H]1Cc2cc3c(cc2[C@@H]1[N+](C)(C)C)OCO3 (relative stereo) [cis sat-Q-bu-MDI] | – | – | – | –
1020 µM | 871 µM | CCC[C@@H]1Cc2cc3c(cc2[C@@H]1[N+](C)(C)C)OCO3 (relative stereo) [cis sat-Q-pr-MDI, cis-2-propyl-5,6-methylenedioxyindane-1-trimethylammonium iodide] | – | – | – | –
– | – | CCCC[C@@H]1Cc2cc3c(cc2[C@@H]1N(C)C)OCO3 (relative stereo) [cis sat-bu-MDI, 2-butyl-5,6-methylenedioxyindane-1-dimethylammonium chloride] | 37.9 µM | greater activity on norepinephrine treated tissue than the corresponding butyl compound of Formula I | 17.4 µM | comparative vasodilator activity, potassium chloride-treated tissue [2]: substantially the same activity
– | – | CCC[C@@H]1Cc2cc3c(cc2[C@@H]1N(C)C)OCO3 (relative stereo) [cis sat-pr-MDI, 2-propyl-5,6-methylenedioxyindane-1-dimethylammonium chloride] | 59.4 µM | substantially the same activity as the corresponding unsaturated propyl compound of Formula I | 30 µM | comparative vasodilator activity, potassium chloride-treated tissue [2]: slightly lower activity
– | – | CCCC[C@H]1Cc2cc3c(cc2[C@@H]1N(C)C)OCO3 (relative stereo) [trans sat-bu-MDI] | 151 to 173 µM | – | 31.1 µM | –
– | – | CCC[C@H]1Cc2cc3c(cc2[C@@H]1N(C)C)OCO3 (relative stereo) [trans sat-pr-MDI, 2-propyl-5,6-methylenedioxyindane-1-dimethylammonium chloride] | 383 µM | – | 98.9 µM | –
– | – | NC[C@H](O)c1ccc(O)c(O)c1 [norepinephrine, reference compound] | – | – | – | control tension as percent of the maximum inducible contraction ([1]; 10^-7 M norepinephrine): 85.1%; control tension generated ([1]; 10^-7 M norepinephrine, rat aortic strip): 0.98 ± 0.03 g
– | – | [Cl-].[K+] [potassium chloride, reference compound] | – | – | – | control tension as percent of the maximum inducible contraction ([2]; 40 mM potassium chloride): 84.2%; control tension generated ([2]; 40 mM potassium chloride, rat aortic strip): 0.89 ± 0.05 g
– | – | C=C[C@H]1C[N@@]2CC[C@H]1C[C@@H]2[C@@H](O)c1ccnc2ccc(OC)cc12 [quinidine, reference compound] | – | – | – | effect on the S wave [3]: severely deepened the S wave; ED50 [4]: 67 mg/kg

Structure (SMILES) | IC50 [1, 5] | IC50 [2, 6] | IC50 ([1]; Rattus norvegicus) | comparative vasodilator activity, norepinephrine-treated tissue [1] | IC50 ([2]; Rattus norvegicus) | further results
CCCC1=Cc2cc3c(cc2C1[N+](C)(C)C)OCO3.[I-] (centres unmarked) [Q-pr-MDI, 2-propyl-5,6-methylenedioxyindene-1-trimethylammonium iodide] | 382 µM | 547 µM | – | less active in vitro than their tertiary analogs | – | relaxation of the aortic tissue ([1]; norepinephrine- or KCl-treated tissue): relaxed the aortic tissue
